Data as given in ChEMBL document CHEMBL1201862, “PubChem BioAssay data set” (2004).
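1) Cells in 96-well plates. 2) Compound, 48 h, 5 concentrations. 3) Linear interpolation between surrounding doses. 4) Unreached endpoint = highest concentration. At the GI50, growth is halved.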 The source made the active and inactive calls. Rule as the data show it: active = GI50 up to about 1.1 µM and inactive = higher.

Assays:
Experiment in all cases: NCI-60 cell line screen, 48 h
ACHN = tested on: ACHN
786-0 = tested on: 786-0
A549 = tested on: A549
HCT-116 = tested on: HCT-116
NCI-H226 = tested on: NCI-H226
SF-295 = tested on: SF-295
HT-29 = tested on: HT-29
SF-539 = tested on: SF-539
SNB-75 = tested on: SNB-75
OVCAR-3 = tested on: OVCAR-3
DMS-273 = tested on: DMS-273
UO-31 = tested on: UO-31
OVCAR-8 = tested on: OVCAR-8
OVCAR-5 = tested on: OVCAR-5
HCT-15 = tested on: HCT-15
EKVX = tested on: EKVX
SK-MEL-2 = tested on: SK-MEL-2
SR = tested on: SR
HCC 2998 = tested on: HCC 2998
RPMI-8226 = tested on: RPMI-8226
HOP-62 = tested on: HOP-62
SNB-19 = tested on: SNB-19
SK-MEL-5 = tested on: SK-MEL-5
SF-268 = tested on: SF-268
KM12 = tested on: KM12
M19-MEL = tested on: M19-MEL
NCI-H522 = tested on: NCI-H522
COLO 205 = tested on: COLO 205
K562 = tested on: K562
CAKI-1 = tested on: CAKI-1
XF498 = tested on: XF498
LOX IMVI = tested on: LOX IMVI
Malme-3M = tested on: Malme-3M
UACC-257 = tested on: UACC-257
M14 = tested on: M14
MOLT-4 = tested on: MOLT-4
HOP-18 = tested on: HOP-18
NCI-H460 = tested on: NCI-H460
OVCAR-4 = tested on: OVCAR-4
HL-60 = tested on: HL-60
CCRF-CEM = tested on: CCRF-CEM
SK-MEL-28 = tested on: SK-MEL-28
SN12C = tested on: SN12C
SW-620 = tested on: SW-620
TK-10 = tested on: TK-10
RXF 393 = tested on: RXF 393
DMS-114 = tested on: DMS-114
KM-20L2 = tested on: KM-20L2
SK-OV-3 = tested on: SK-OV-3
A498 = tested on: A498
DLD-1 = tested on: DLD-1
MCF7 = tested on: MCF7
NCI/ADR-RES = tested on: NCI/ADR-RES
HOP-92 = tested on: HOP-92
IGROV-1 = tested on: IGROV-1
SNB-78 = tested on: SNB-78
UACC-62 = tested on: UACC-62
U-251 = tested on: U-251
NCI-H23 = tested on: NCI-H23

**Q.** With `c1cnc2c(c1)-n1cccc1C1(CCSCC1)NN2` as the compound, how does the GI50 (ACHN) read?
**A.** > 100 µM (inactive)

**Q.** And the GI50 (786-0)?
**A.** > 100 µM (inactive)

**Q.** And the GI50 (A549)?
**A.** > 100 µM (inactive)

**Q.** And the GI50 (HCT-116)?
**A.** > 100 µM (inactive)

**Q.** And the GI50 (NCI-H226)?
**A.** 59 µM (inactive)

**Q.** And the GI50 (SF-295)?
**A.** > 100 µM (inactive)

**Q.** And the GI50 (HT-29)?
**A.** > 100 µM (inactive)

**Q.** What about the GI50 (SF-539) of the same compound?
**A.** > 100 µM (inactive)

**Q.** What about the GI50 (SNB-75) of the same compound?
**A.** 53.5 µM (inactive)

**Q.** What about the GI50 (OVCAR-3) of the same compound?
**A.** > 100 µM (inactive)

**Q.** And the GI50 (DMS-273)?
**A.** > 100 µM (inactive)

**Q.** What about the GI50 (UO-31) of the same compound?
**A.** 32.4 µM (inactive)

**Q.** What about the GI50 (OVCAR-8) of the same compound?
**A.** > 100 µM (inactive)

**Q.** What about the GI50 (OVCAR-5) of the same compound?
**A.** > 100 µM (inactive)

**Q.** And the GI50 (HCT-15)?
**A.** 80.2 µM

**Q.** What about the GI50 (EKVX) of the same compound?
**A.** > 100 µM (inactive)

**Q.** What about the GI50 (SK-MEL-2) of the same compound?
**A.** > 100 µM (inactive)

**Q.** And the GI50 (SR)?
**A.** 61.8 µM (inactive)

**Q.** And the GI50 (HCC 2998)?
**A.** > 100 µM (inactive)

**Q.** What about the GI50 (RPMI-8226) of the same compound?
**A.** > 100 µM (inactive)

**Q.** What about the GI50 (HOP-62) of the same compound?
**A.** > 100 µM (inactive)

**Q.** What about the GI50 (SNB-19) of the same compound?
**A.** > 100 µM (inactive)

**Q.** What about the GI50 (SK-MEL-5) of the same compound?
**A.** > 100 µM (inactive)

**Q.** What about the GI50 (SF-268) of the same compound?
**A.** > 100 µM (inactive)

**Q.** And the GI50 (KM12)?
**A.** > 100 µM (inactive)

**Q.** What about the GI50 (M19-MEL) of the same compound?
**A.** 48.5 µM (inactive)

**Q.** What about the GI50 (NCI-H522) of the same compound?
**A.** 95.3 µM (inactive)

**Q.** And the GI50 (COLO 205)?
**A.** > 100 µM (inactive)

**Q.** What about the GI50 (K562) of the same compound?
**A.** 89.5 µM (inactive)

**Q.** And the GI50 (CAKI-1)?
**A.** 88.5 µM (inactive)

**Q.** What about the GI50 (XF498) of the same compound?
**A.** > 100 µM (inactive)

**Q.** What about the GI50 (LOX IMVI) of the same compound?
**A.** 68.7 µM (inactive)

**Q.** And the GI50 (Malme-3M)?
**A.** > 100 µM (inactive)

**Q.** What about the GI50 (UACC-257) of the same compound?
**A.** 90.2 µM (inactive)

**Q.** And the GI50 (M14)?
**A.** > 100 µM (inactive)

**Q.** What about the GI50 (MOLT-4) of the same compound?
**A.** 50.2 µM (inactive)

**Q.** What about the GI50 (HOP-18) of the same compound?
**A.** 26 µM (inactive)

**Q.** And the GI50 (NCI-H460)?
**A.** 83.4 µM (inactive)

**Q.** What about the GI50 (OVCAR-4) of the same compound?
**A.** > 100 µM (inactive)

**Q.** And the GI50 (HL-60)?
**A.** 39.6 µM (inactive)

**Q.** What about the GI50 (CCRF-CEM) of the same compound?
**A.** > 100 µM (inactive)

**Q.** What about the GI50 (SK-MEL-28) of the same compound?
**A.** > 100 µM (inactive)

**Q.** What about the GI50 (SN12C) of the same compound?
**A.** > 100 µM (inactive)

**Q.** And the GI50 (SW-620)?
**A.** > 100 µM (inactive)

**Q.** And the GI50 (TK-10)?
**A.** 42.6 µM (inactive)

**Q.** What does the source list for `CC(O)C(O)C(N)CC=O` (centres undefined)?
**A.** GI50 (RXF 393): > 500 µM (inactive); GI50 (DMS-114): > 500 µM (inactive); GI50 (KM-20L2): > 500 µM (inactive); GI50 (A549): > 500 µM (inactive); GI50 (HCT-116): > 500 µM (inactive); GI50 (NCI-H226): > 500 µM (inactive); GI50 (SF-295): > 500 µM (inactive); GI50 (HT-29): > 500 µM (inactive); GI50 (SK-OV-3): > 500 µM (inactive); GI50 (SF-539): > 500 µM (inactive); GI50 (SNB-75): > 500 µM (inactive); GI50 (A498): 36.1 µM (inactive); GI50 (OVCAR-3): > 500 µM (inactive); GI50 (DMS-273): > 500 µM (inactive); GI50 (UO-31): > 500 µM (inactive); GI50 (OVCAR-8): > 500 µM (inactive); GI50 (OVCAR-5): 175 µM (inactive); GI50 (DLD-1): > 500 µM (inactive); GI50 (MCF7): > 500 µM (inactive); GI50 (HCT-15): > 500 µM; GI50 (NCI/ADR-RES): > 500 µM (inactive); GI50 (HOP-92): > 500 µM (inactive); GI50 (EKVX): 491 µM (inactive); GI50 (SK-MEL-2): > 500 µM (inactive); GI50 (HCC 2998): > 500 µM (inactive); GI50 (RPMI-8226): > 500 µM (inactive); GI50 (HOP-62): > 500 µM (inactive); GI50 (SNB-19): > 500 µM (inactive); GI50 (SK-MEL-5): > 500 µM (inactive); GI50 (SF-268): > 500 µM (inactive); GI50 (KM12): > 500 µM (inactive); GI50 (M19-MEL): > 500 µM (inactive); GI50 (IGROV-1): > 500 µM (inactive); GI50 (NCI-H522): 79.3 µM (inactive); GI50 (COLO 205): > 500 µM (inactive); GI50 (K562): > 500 µM (inactive); GI50 (CAKI-1): > 500 µM (inactive); GI50 (SNB-78): > 482 µM (inactive); GI50 (XF498): > 129 µM (inactive); GI50 (LOX IMVI): 499 µM (inactive); GI50 (Malme-3M): > 500 µM (inactive); GI50 (UACC-257): > 500 µM (inactive); GI50 (UACC-62): > 500 µM (inactive); GI50 (U-251): > 500 µM (inactive); GI50 (MOLT-4): > 500 µM (inactive); GI50 (HOP-18): > 500 µM (inactive); GI50 (NCI-H23): > 500 µM (inactive); GI50 (NCI-H460): > 500 µM (inactive); GI50 (OVCAR-4): > 500 µM (inactive); GI50 (HL-60): 495 µM (inactive); GI50 (CCRF-CEM): > 500 µM (inactive); GI50 (SK-MEL-28): > 500 µM (inactive); GI50 (SN12C): > 500 µM (inactive); GI50 (SW-620): > 158 µM (inactive)
